Measurements as given in publication PMC11785093 (bioRxiv, 2025).
pKd: −log10 of the molar value. Where two headings read alike, the source gives them in different places.

Assays:
DDB1 [1] = molecular target: T1, DDB1 (Homo sapiens, UniProt Q16531); experiment: SPR; type: binding; conditions: biotinylated protein immobilised; pH […] °C, […] DMSO; site at W1047, Y1114
DDB1 [2] = molecular target: T1, DDB1; experiment: SPR; type: binding; conditions: read-out: estimated KD; biotinylated protein immobilised; pH […] °C, […] DMSO

T1 sequence (Q16531 2-1140): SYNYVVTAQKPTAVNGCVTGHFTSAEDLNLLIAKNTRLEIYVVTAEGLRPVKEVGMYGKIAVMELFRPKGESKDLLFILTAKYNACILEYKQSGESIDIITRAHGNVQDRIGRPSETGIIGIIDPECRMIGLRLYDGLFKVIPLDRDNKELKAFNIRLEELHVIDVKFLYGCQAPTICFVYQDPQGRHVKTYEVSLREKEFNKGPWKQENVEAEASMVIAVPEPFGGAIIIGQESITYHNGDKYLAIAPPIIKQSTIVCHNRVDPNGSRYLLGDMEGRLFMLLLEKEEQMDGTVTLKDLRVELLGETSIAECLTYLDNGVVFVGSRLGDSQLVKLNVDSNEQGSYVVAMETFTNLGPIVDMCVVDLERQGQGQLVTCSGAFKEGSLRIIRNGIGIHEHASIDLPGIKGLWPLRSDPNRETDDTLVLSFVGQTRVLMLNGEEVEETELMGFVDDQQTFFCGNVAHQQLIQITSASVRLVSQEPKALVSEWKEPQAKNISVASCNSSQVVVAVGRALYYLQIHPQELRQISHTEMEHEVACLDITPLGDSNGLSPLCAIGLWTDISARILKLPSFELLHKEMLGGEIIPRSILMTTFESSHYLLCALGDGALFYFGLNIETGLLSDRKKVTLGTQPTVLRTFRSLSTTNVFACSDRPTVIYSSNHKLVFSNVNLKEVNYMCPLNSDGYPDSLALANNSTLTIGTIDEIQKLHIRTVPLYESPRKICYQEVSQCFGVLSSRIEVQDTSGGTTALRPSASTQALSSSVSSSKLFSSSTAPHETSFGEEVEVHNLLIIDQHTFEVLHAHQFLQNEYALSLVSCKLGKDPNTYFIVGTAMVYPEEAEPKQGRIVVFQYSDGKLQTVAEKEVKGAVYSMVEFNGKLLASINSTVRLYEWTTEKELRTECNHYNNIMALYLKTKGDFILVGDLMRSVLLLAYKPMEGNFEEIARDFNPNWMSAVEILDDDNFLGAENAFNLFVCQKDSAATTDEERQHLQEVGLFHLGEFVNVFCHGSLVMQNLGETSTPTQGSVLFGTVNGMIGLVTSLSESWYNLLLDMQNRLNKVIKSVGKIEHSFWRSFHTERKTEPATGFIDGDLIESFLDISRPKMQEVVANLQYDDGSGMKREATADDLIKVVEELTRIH

pKd (DDB1 [1])	pKd (DDB1 [2])	SMILES
5.70		CCOc1cccc([C@@H]2CC(=O)Nc3c2c(C)nn3-c2ccc3nncn3n2)c1 [(S)-XS381952]
	< 4.14	CCOc1cccc([C@H]2CC(=O)Nc3c2c(C)nn3-c2ccc3nncn3n2)c1 [(R)-XS381952]
